Experimental data: patent US20190053492A1, “SUBSTITUTED PYRIDINE COMPOUNDS AS PESTICIDES” (Bayer CropScience Aktiengesellschaft, priority 2016, published 2019)
Like-named read-outs stand apart in the source and are kept apart here.

How the values were obtained:
[1] = log P by HPLC on reversed-phase column (C 18), EEC Directive 79/831 Annex V.A8; format: physicochemical; conditions: 55° C.; for LOGP_HCOOH: log P (HCOOH); for chromatographic logP: reversed-phase HPLC column (C 18)
Procedure: Temperature: 55° C. […] Called log P (HCOOH) in the table. […] Called log P (neutral) in the table.

Ctenocephalides felis = Ctenocephalides felis oral test; format: in vivo; conditions: application rate 100 ppm in citrated cattle blood, after 2 days, adult cat fleas
Procedure: Ctenocephalides felis—Oral Test Solvent: dimethyl sulphoxide To produce a suitable active ingredient formulation, 10 mg of active ingredient are mixed with 0.5 ml of dimethyl sulphoxide. Dilution with citrated cattle blood gives the desired concentration. About 20 unfed adult cat fleas (Ctenocephalides felis) are placed into a chamber which is closed at the top and bottom with gauze. A metal cylinder whose bottom end is closed with parafilm is placed onto the chamber. The cylinder contains the blood/active ingredient formulation, which can be imbibed by the fleas through the parafilm membrane. After 2 days, the kill in % is determined. 100% means that all of the fleas have been killed; 0% means that none of the fleas have been killed.

Phaedon cochleariae = Phaedon cochleariae spray test; format: in vivo; conditions: after 7 days, Chinese cabbage leaf discs
Outline: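 Larval kill read at day 7 as percent, where 100% means every larva dead and 0% none; larvae were placed on dried Brassica pekinensis leaf discs previously sprayed with the formulation (acetone/dimethylformamide solvent, alkylaryl polyglycol ether emulsifier, water).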

Spodoptera frugiperda = Spodoptera frugiperda spray test; format: in vivo; conditions: after 7 days, maize leaf discs
Outline: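 Efficacy in % was scored at 7 days against armyworm caterpillars placed on dried, compound-sprayed Zea mays leaf discs. Compound was dissolved in acetone/dimethylformamide and diluted in water with 1000 ppm alkylaryl polyglycol ether. 100% means all caterpillars were killed.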

[2] = acidic range at pH 2.7, 0.1% aqueous formic acid and acetonitrile, HPLC on reversed-phase column (C 18)
[3] = log P, neutral range, HPLC on reversed-phase column (C 18)
[4] = acidic range pH 2.7, 0.1% aqueous formic acid and acetonitrile, reversed-phase column (C 18)
[5] = log P (neutral), HPLC reversed-phase column (C 18)

Row | LOGP_HCOOH [1, 2] | LOGP_NEUTRAL [1, 3] | LOGP_HCOOH [1, 4] | LOGP_NEUTRAL [1, 5] | SMILES | efficacy (kill in %) (Ctenocephalides felis) [%] | efficacy (beetle larvae killed) (Phaedon cochleariae; application rate 100 g/ha) [%] | efficacy (beetle larvae killed) (Phaedon cochleariae; application rate 500 g/ha) [%] | efficacy (caterpillars killed) (Spodoptera frugiperda; application rate 500 g/ha) [%] | efficacy (caterpillars killed) (Spodoptera frugiperda; application rate 100 g/ha) [%] | chromatographic logP ([1]; pH 2.7, LC-MS acidic range, pH 2.7, 0.1% formic acid/acetonitrile, read-out: log P (acidic) / log P (HCOOH)) | chromatographic logP ([1]; pH 7.8, LC-MS neutral range, pH 7.8, ammonium hydrogencarbonate/acetonitrile, read-out: log P (neutral)) | pest or weed control at 100 ppm (Ctenocephalides felis; Ctenocephalides felis, po, 48 h, read-out: efficacy (kill in %)) [%] | pest or weed control at 100 g/ha (Spodoptera frugiperda; Spodoptera frugiperda, foliar, 168 h, application rate 100 g/ha, read-out: efficacy (caterpillars killed)) [%] | pest or weed control at 500 g/ha (Spodoptera frugiperda; Spodoptera frugiperda, foliar, 168 h, application rate 500 g/ha, read-out: efficacy (caterpillars killed)) [%]
1 | 2.53 | 2.47 |  |  | N#Cc1ccc(CNC(=O)c2cc(-c3ccc([S+]([O-])C(F)F)cc3)cc(NC(=O)C3CC3)n2)cc1 (centres unmarked) [Example I-179] | 100 | 83 | 100 | 83 |  |  |  |  |  | 
2 | 4.64 |  |  |  | O=C(NCc1ccc(F)c(C(F)(F)F)c1)c1cc(-c2ccc(OC(F)(F)F)cc2)cc(NC(=O)C2CC2)n1 [Example I-226] | 100 |  | 100 | 100 | 83 |  |  |  |  | 
3 |  | 3.47 | 3.58 |  | CC(C)C(=O)Nc1cc(-c2ccc(OC(F)(F)F)cc2)cc(C(=O)NC2(C#N)CC2)n1 [Example I-075] | 100 |  | 100 | 100 |  |  |  |  |  | 
4 | 3.84 |  |  |  | C#CC(C)NC(=O)c1cc(-c2ccc(OC(F)(F)F)cc2)cc(NC(=O)C2CC2)n1 (centres unmarked) [Example I-130] | 100 | 100 | 100 | 100 | 83 |  |  |  |  | 
5 |  | 3.29 | 3.39 |  | N#CC1(NC(=O)c2cc(-c3ccc(OC(F)(F)F)cc3)cc(NC(=O)C3CC3)n2)CC1 [Example I-076] | 100 | 100 | 100 | 100 | 100 |  |  |  |  | 
6 |  | 5.54 | 4.37 |  | O=C(Cc1ccc(C(F)(F)F)cc1)Nc1cc(-c2ccc(C(F)(F)F)cc2)cc(C(=O)NC2CC2)n1 [Example I-088] | 90 |  |  | 83 | 100 |  |  |  |  | 
7 | 2.88 | 3.30 |  |  | O=C(NCc1ccccn1)c1cc(-c2ccc(OC(F)(F)F)cc2)cc(NC(=O)C2CC2)n1 [Example I-116] | 100 | 100 | 100 | 100 |  |  |  |  |  | 
8 | 3.15 |  |  |  | N#CCNC(=O)c1cc(-c2ccc(OC(F)(F)F)cc2)cc(NC(=O)C2CC2)n1 [Example I-131] | 100 |  | 100 | 100 | 100 |  |  |  |  | 
9 |  | 3.68 | 3.78 |  | N#CC1(NC(=O)c2cc(-c3ccc(OC(F)(F)F)cc3)cc(NC(=O)C3CC3)n2)CCC1 [Example I-109] | 100 |  | 100 | 100 |  |  |  |  |  | 
10 | 4.51 | 4.41 |  |  | N#Cc1ccc(CNC(=O)c2cc(-c3ccc(C(F)(C(F)(F)F)C(F)(F)F)cc3)cc(NC(=O)C3CC3)n2)cc1 [Example I-150] | 95 |  |  | 100 | 100 |  |  |  |  | 
11 | 5.11 | 4.89 |  |  | O=C(NCC1CCCCC1)c1cc(-c2ccc(OC(F)(F)F)cc2)cc(NC(=O)C2CC2)n1 [Example I-167] | 90 |  |  |  |  |  |  |  |  | 
12 | 3.53 | 3.35 |  |  | N#Cc1ccc(CNC(=O)c2cc(-c3ncc(C(F)(F)F)cc3Cl)cc(NC(=O)C3CC3)n2)cc1 [Example I-119] |  | 100 | 100 | 100 | 100 |  |  |  |  | 
13 | 3.81 | 3.71 |  |  | N#Cc1ccc(CNC(=O)c2cc(-c3cccc(OC(F)(F)F)c3)cc(NC(=O)C3CC3)n2)cc1 [Example I-208] |  | 100 | 100 |  | 100 |  |  |  |  | 
14 | 3.38 | 3.26 |  |  | N#CCCCCNC(=O)c1cc(-c2ccc(OC(F)(F)F)cc2)cc(NC(=O)C2CC2)n1 [Example I-157] |  |  | 100 | 83 | 100 |  |  |  |  | 
15 |  | 4.06 | 4.17 |  | CC(NC(=O)c1cc(-c2ccc(C(F)(F)F)cc2)cc(NC(=O)C2CC2)n1)C1CC1 (centres unmarked) [Example I-031] |  |  | 100 | 100 |  |  |  |  |  | 
16 |  | 3.39 | 3.48 |  | O=C(NC1CC1)c1cc(-c2ccc(I)cc2)cc(NC(=O)C2CC2)n1 [Example I-035] |  |  | 100 | 100 |  |  |  |  |  | 
17 |  | 4.60 | 4.78 |  | O=C(NCc1ccc(Cl)cc1F)c1cc(-c2ccc(OC(F)(F)F)cc2)cc(NC(=O)C2CC2)n1 [Example I-067] |  |  | 100 | 100 | 100 |  |  |  |  | 
18 |  |  | 3.72 | 3.13 | N#Cc1ccc(ONC(=O)c2cc(-c3ccc(OC(F)(F)F)cc3)cc(NC(=O)C3CC3)n2)cc1 [Example I-239] |  | 83 |  | 83 |  |  |  |  |  | 
19 |  | 3.99 | 4.14 |  | N#Cc1ccc(CNC(=O)c2cc(-c3ccc(C(F)(F)F)cc3)cc(NC(=O)C3CCC3)n2)cc1 [Example I-045] |  | 100 | 83 | 100 |  |  |  |  |  | 
20 |  |  | 3.21 | 3.14 | CCONC(=O)c1cc(-c2ccc(OC(F)(F)F)cc2)cc(NC(=O)C2CC2)n1 [Example I-235] | 95 |  | 100 |  |  |  |  |  |  | 
21 |  | 4.53 | 4.63 |  | O=C(NCc1ccc(Cl)cc1F)c1cc(-c2ccc(C(F)(F)F)cc2)cc(NC(=O)C2CC2)n1 [Example I-066] |  |  | 100 | 100 |  |  |  |  |  | 
22 |  |  | 3.90 | 3.96 | N#Cc1ccc(CNC(=O)c2cc(-c3ccc(OC(F)(F)F)cc3)cc(NC(=O)CC(F)(F)F)n2)cc1 [Example I-241] |  |  | 100 | 100 | 100 |  |  |  |  | 
23 |  | 3.26 | 3.36 |  | N#Cc1ccc(CNC(=O)c2cc(-c3ccc(C(F)(F)F)cc3)cc(NC(=O)C3CC3)n2)cn1 [Example I-042] |  | 100 | 100 | 100 | 83 |  |  |  |  | 

Row | SMILES | LOGP_HCOOH [1, 2] | LOGP_NEUTRAL [1, 3] | LOGP_HCOOH [1, 4] | LOGP_NEUTRAL [1, 5] | efficacy (kill in %) (Ctenocephalides felis) [%] | efficacy (beetle larvae killed) (Phaedon cochleariae; application rate 100 g/ha) [%] | efficacy (beetle larvae killed) (Phaedon cochleariae; application rate 500 g/ha) [%] | efficacy (caterpillars killed) (Spodoptera frugiperda; application rate 500 g/ha) [%] | efficacy (caterpillars killed) (Spodoptera frugiperda; application rate 100 g/ha) [%] | chromatographic logP ([1]; pH 2.7, LC-MS acidic range, pH 2.7, 0.1% formic acid/acetonitrile, read-out: log P (acidic) / log P (HCOOH)) | chromatographic logP ([1]; pH 7.8, LC-MS neutral range, pH 7.8, ammonium hydrogencarbonate/acetonitrile, read-out: log P (neutral)) | pest or weed control at 100 ppm (Ctenocephalides felis; Ctenocephalides felis, po, 48 h, read-out: efficacy (kill in %)) [%] | pest or weed control at 100 g/ha (Spodoptera frugiperda; Spodoptera frugiperda, foliar, 168 h, application rate 100 g/ha, read-out: efficacy (caterpillars killed)) [%] | pest or weed control at 500 g/ha (Spodoptera frugiperda; Spodoptera frugiperda, foliar, 168 h, application rate 500 g/ha, read-out: efficacy (caterpillars killed)) [%]
24 | COC(=O)N(Cc1ccc(C#N)cc1)C(=O)c1cc(-c2ccc(OC(F)(F)F)cc2)cc(N(C(=O)OC)C(=O)C2CC2)n1 [Example I-232, Methyl (4-cyanobenzyl)({6-[(cyclopropylcarbonyl)(methoxycarbonyl)amino]-4-[4-(trifluoromethoxy)phenyl]pyridin-2-yl}carbonyl)carbamate] | 4.30 | 4.31 |  |  |  |  |  |  |  | 4.3 | 4.31 | 100 | 100 | 100
